Reference: article PMC6155387, “Alkoxy and Enediyne Derivatives Containing 1,4-Benzoquinone Subunits—Synthesis and Antitumor Activity” (Molecules : A Journal of Synthetic Chemistry and Natural …, 2017)
Like-named read-outs stand apart in the source and are kept apart here.

What was measured:
C-32 [1] = conditions: melanoma C-32, read-out: IC50 ± SD C-32, cited from earlier work
SNB-19 [2] = conditions: glioblastoma SNB-19, read-out: IC50 ± SD SNB-19, cited from earlier work
MDA-MB-231 [3] = conditions: breast cancer MDA-MB-231, read-out: IC50 ± SD MDA-MB-231, cited from earlier work
HFF-1 [4] = conditions: normal fibroblasts HFF-1, cited from earlier work; for IC50 ± SD HFF-1: Neg: negative in the concentration used, footnote a; for IC50: footnote b, read-out: IC50 ± SD HFF-1
C-32 [5] = assay: antiproliferative activity (WST-1), melanoma C-32; assay type: cell-based, human; conditions: for SI (IC50 HFF-1/IC50 cancer line) C-32: selectivity index, HFF-1 vs C-32; for IC50: Homo sapiens, C32, melanoma C-32, 72 h, WST-1, Neg: negative in the concentration used, read-out: IC50 ± SD C-32
Procedure: (§1) Biological activity of the tested compounds was assessed in vitro using cultured cell lines: melanoma C-32 (ATCC, Rockville, MD, USA), glioblastoma SNB-19 (DSMZ, Braunschweig, Germany), breast cancer MDA-MB-231 (ATCC, Rockville, MD, USA), and normal human fibroblasts derived from foreskin HFF-1 (ATCC, Rockville, MD, USA). Cell cultures were maintained using DMEM (Lonza, Basel, Switzerland) supplemented with 10% fetal bovine serum (FBS) (Biological Industries Cromwell, CT, USA) and a mixture of penicillin (10,000 U/mL) and streptomycin (10 mg/mL) (Lonza, Basel, Switzerland).
(§2) Cells were cultured using 96-well plates (Nunc Thermo Fisher Scientific, Waltham, MA, USA). Cells were seeded (5 × 10^3 cells/well) and incubated for 24 h in a standard incubator (37 °C, 5% CO2, relative humidity 95%). Subsequently, the medium was replaced with a fresh aliquot containing an examined compound (0.01; 0.05; 0.1; 0.5; 1; 5; 10; 50; 100 µg/mL), and cells were further incubated for another 72 h. Upon the conclusion of incubation, a CVDE test (Aniara, West Chester, OH, USA) using crystal violet was performed to assess the relative number of cells in the culture. A WST-1 test (Roche) was performed to examine the metabolic activity of cells and test for the presence of LDH in the medium (Roche Diagnostics GmbH, Mannheim, Germany), allowing for the assessment of the relative number of dead cells (i.e., cytotoxicity of the examined compound). UVM340 microplate readers (BIOGENET, Józefów, Poland) were used to read absorbance values.
(§3) WST-1 colorimetric assay for cell proliferation (Roche Diagnostics GmbH, Mannheim, Germany, reagent kit cat. 11644807001) is based on the viable cells’ ability to cleave the bright red-colored stable tetrazolium salt WST-1 to dark red soluble formazan. This bioreduction occurs under the influence of mitochondrial dehydrogenases (depends mostly on production of NAD(P)H in viable cells). The amount of formazan dye formed correlates directly with the number of metabolically active cells in the culture and is measured by absorbance (λ = 450 nm) following 1 h incubation of cells with the reagent.

SNB-19 [6] = assay: antiproliferative activity (WST-1), glioblastoma SNB-19; assay type: cell-based, human; conditions: for SI (IC50 HFF-1/IC50 cancer line) SNB-19: selectivity index, HFF-1 vs SNB-19; for IC50: Homo sapiens, glioblastoma SNB-19, 72 h, WST-1, Neg: negative in the concentration used, read-out: IC50 ± SD SNB-19
Procedure: as §1, §2, §3

MDA-MB-231 [7] = assay: antiproliferative activity (WST-1), breast cancer MDA-MB-231; assay type: cell-based, human; conditions: for SI (IC50 HFF-1/IC50 cancer line) MDA-MB-231: selectivity index, HFF-1 vs MDA-MB-231; for IC50: Homo sapiens, breast cancer MDA-MB-231, 72 h, WST-1, Neg: negative in the concentration used, read-out: IC50 ± SD MDA-MB-231
Procedure: as §1, §2, §3

HFF-1 [8] = assay: antiproliferative activity (WST-1), normal fibroblasts HFF-1; assay type: cell-based, human; conditions: Homo sapiens, normal fibroblasts HFF-1, 72 h, Neg: negative in the concentration used, read-out: IC50 ± SD HFF-1
Procedure: as §1, §2, §3

Row | SMILES | IC50 (C-32 [1]; footnote a) | IC50 (SNB-19 [2]; footnote a) | IC50 (MDA-MB-231 [3]; footnote a) | IC50 ± SD HFF-1 (HFF-1 [4]) | SI (IC50 HFF-1/IC50 cancer line) C-32 (C-32 [5]) | SI (IC50 HFF-1/IC50 cancer line) SNB-19 (SNB-19 [6]) | SI (IC50 HFF-1/IC50 cancer line) MDA-MB-231 (MDA-MB-231 [7]) | IC50 (C-32 [1]; footnote b) | IC50 (SNB-19 [2]; footnote b) | IC50 (MDA-MB-231 [3]; footnote b) | IC50 (HFF-1 [4]) | IC50 (C-32 [5]) | IC50 (SNB-19 [6]) | IC50 (MDA-MB-231 [7]) | IC50 (HFF-1 [8])
1 | C=CCOC1=C(OCC=C)C(=O)c2ncccc2C1=O [Compound 17] | 1.5 ± 0.1 µM | 0.2 ± 0.1 µM | 12.6 ± 2.7 µM | Neg | – | – | – | – | – | – | – | – | – | – | –
2 | C#CCOC1=C(Cl)C(=O)c2cccnc2C1=O [Compound 9] | – | – | – | – | 10.31 | 0.16 | 0.15 | 0.32 ± 0.1 µM | 20.4 ± 0.2 µM | 21.4 ± 3.4 µM | 3.3 ± 0.3 µM | – | – | – | –
3 | C=CCOC1=C(Cl)C(=O)c2cccnc2C1=O [Compound 8] | 0.28 ± 0.1 µM | 0.3 ± 0.1 µM | 17.2 ± 2.8 µM | Neg | – | – | – | – | – | – | – | – | – | – | –
4 | CCCOC1=C(Cl)C(=O)c2cccnc2C1=O [Compound 7] | 0.2 ± 0.1 µM | 0.4 ± 0.1 µM | 22.4 ± 2.7 µM | Neg | – | – | – | – | – | – | – | – | – | – | –
5 | C#CCOC1=C(OCC#C)C(=O)c2ncccc2C1=O [Compound 18] | – | – | – | – | 50.40 | 0.58 | 7.00 | 0.3 ± 0.1 µM | 21.7 ± 1.1 µM | 1.8 ± 0.1 µM | 12.6 ± 0.9 µM | – | – | – | –
6 | CCCOC1=C(OCCC)C(=O)c2ncccc2C1=O [Compound 16] | 1.1 ± 0.1 µM | 0.7 ± 0.02 µM | 3 ± 0.3 µM | Neg | – | – | – | – | – | – | – | – | – | – | –
7 | C#CCOC1=C(Cl)C(=O)c2ccccc2C1=O [Compound 6, 2-Chloro-3-(2-propynoxy)-1,4-naphthoquinon] | – | – | – | – | 1.22 | 0.46 | 0.19 | – | – | – | – | 3.2 ± 0.6 µM | 8.4 ± 1.2 µM | 21 ± 1.5 µM | 3.9 ± 0.5 µM
8 | O=C1C(Cl)=C(Cl)C(=O)c2ccccc21 [Compound 1, 2,3-Dichloro-1,4-naphtoquinon, reference compound] | – | – | – | – | 0.62 | 0.59 | 0.49 | – | – | – | – | 25 ± 0.3 µM | 26.6 ± 0.5 µM | 31.9 ± 2.7 µM | 15.6 ± 0.3 µM
